The supplement of paper PMC10307832

Assays:
Assay in all cases: relative viability (nuclei count vs DMSO), 5 days (fraction); higher = more cells survive
LCLC-103H = tested on: LCLC-103H
In short: (§1)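 Medians of duplicate plates are given as relative viability. That measure is the nuclei count in treated wells divided by the count in vehicle wells. Counts were taken on 4× images of lung cancer cell lines in 1536-well plates, 5 days after pin-tool dosing the day after seeding with one drug alone or a fixed anchor-drug dose plus five library-drug doses (not always all listed) in √10 steps.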

LXF-289 = tested on: LXF-289
In short: as §1

NCI-H1355 = tested on: NCI-H1355
In short: as §1

NCI-H1563 = tested on: NCI-H1563
In short: as §1

NCI-H1651 = tested on: NCI-H1651
In short: as §1

NCI-H1755 = tested on: NCI-H1755
In short: as §1

NCI-H1792 = tested on: NCI-H1792
In short: as §1

NCI-H1915 = tested on: NCI-H1915
In short: as §1

NCI-H2170 = tested on: NCI-H2170
In short: as §1

NCI-H2347 = tested on: NCI-H2347
In short: as §1

NCI-H3122 = tested on: NCI-H3122
In short: as §1

NCI-H322M = tested on: NCI-H322M
In short: as §1

NCI-H441 = tested on: NCI-H441
In short: as §1

NCI-H460 = tested on: NCI-H460
In short: as §1

NCI-H520 = tested on: NCI-H520
In short: as §1

NCI-H596 = tested on: NCI-H596
In short: as §1

NCI-H650 = tested on: NCI-H650
In short: as §1

NCI-H661 = tested on: NCI-H661
In short: as §1

NCI-H727 = tested on: NCI-H727
In short: as §1

PC-14 = tested on: PC-14
In short: as §1

RERF-LC-KJ = tested on: RERF-LC-KJ
In short: as §1

SK-MES-1 = tested on: SK-MES-1
In short: as §1

SW 900 = tested on: SW 900
In short: as §1

For Oc1nc(-c2ccc(C(F)(F)F)cc2)nc2c1CSCC2 [XAV939] + CCNC(=O)c1noc(-c2cc(C(C)C)c(O)cc2O)c1-c1ccc(CN2CCOCC2)cc1 [Luminespib] (partner 0.01 µM), the relative viability (LCLC-103H; first compound 0.08 µM) was 1.09, the relative viability (LCLC-103H; first compound 0.253 µM) was 0.934 and the relative viability (LCLC-103H; first compound 0.8 µM) was 0.971. For the same molecule, the relative viability (LCLC-103H; first compound 2.53 µM) was 0.799, the relative viability (LXF-289; first compound 0.08 µM) was 0.727 and the relative viability (LXF-289; first compound 0.253 µM) was 0.681. It also gave a relative viability (LXF-289; first compound 0.8 µM) of 0.778, a relative viability (LXF-289; first compound 2.53 µM) of 0.729 and a relative viability (NCI-H1355; first compound 0.08 µM) of 0.814. The relative viability (NCI-H1355; first compound 0.253 µM) was 0.787, the relative viability (NCI-H1355; first compound 0.8 µM) was 0.632 and the relative viability (NCI-H1355; first compound 2.53 µM) was 0.47. For the same molecule, the relative viability (NCI-H1563; first compound 0.08 µM) was 0.617, the relative viability (NCI-H1563; first compound 0.253 µM) was 0.481 and the relative viability (NCI-H1563; first compound 0.8 µM) was 0.505. The relative viability (NCI-H1563; first compound 2.53 µM) was 0.489, the relative viability (NCI-H1651; first compound 0.08 µM) was 0.988 and the relative viability (NCI-H1651; first compound 0.253 µM) was 0.699. The relative viability (NCI-H1651; first compound 0.8 µM) was 0.896, the relative viability (NCI-H1651; first compound 2.53 µM) was 0.725 and the relative viability (NCI-H1755; first compound 0.08 µM) was 0.522. It also gave a relative viability (NCI-H1755; first compound 0.253 µM) of 0.457, a relative viability (NCI-H1755; first compound 0.8 µM) of 0.361 and a relative viability (NCI-H1755; first compound 2.53 µM) of 0.488. The relative viability (NCI-H1792; first compound 0.08 µM) was 0.419, the relative viability (NCI-H1792; first compound 0.253 µM) was 0.391 and the relative viability (NCI-H1792; first compound 0.8 µM) was 0.466. For the same molecule, the relative viability (NCI-H1792; first compound 2.53 µM) was 0.464, the relative viability (NCI-H1915; first compound 0.08 µM) was 1.11 and the relative viability (NCI-H1915; first compound 0.253 µM) was 0.449. It also gave a relative viability (NCI-H1915; first compound 0.8 µM) of 0.849, a relative viability (NCI-H1915; first compound 2.53 µM) of 0.741 and a relative viability (NCI-H2170; first compound 0.08 µM) of 0.764. It also gave a relative viability (NCI-H2170; first compound 0.253 µM) of 0.754, a relative viability (NCI-H2170; first compound 0.8 µM) of 0.704 and a relative viability (NCI-H2170; first compound 2.53 µM) of 0.529. The relative viability (NCI-H2347; first compound 0.08 µM) was 0.419, the relative viability (NCI-H2347; first compound 2.53 µM) was 0.248 and the relative viability (NCI-H3122; first compound 0.08 µM) was 0.0855. The relative viability (NCI-H3122; first compound 0.253 µM) was 0.0791, the relative viability (NCI-H3122; first compound 0.8 µM) was 0.0658 and the relative viability (NCI-H3122; first compound 2.53 µM) was 0.0658. It also gave a relative viability (NCI-H322M; first compound 0.08 µM) of 1.06, a relative viability (NCI-H322M; first compound 0.253 µM) of 0.808 and a relative viability (NCI-H322M; first compound 0.8 µM) of 0.86. For the same molecule, the relative viability (NCI-H322M; first compound 2.53 µM) was 0.552, the relative viability (NCI-H441; first compound 0.08 µM) was 0.374 and the relative viability (NCI-H441; first compound 0.253 µM) was 0.355. The relative viability (NCI-H441; first compound 0.8 µM) was 0.245, the relative viability (NCI-H441; first compound 2.53 µM) was 0.282 and the relative viability (NCI-H460; first compound 0.08 µM) was 0.0319. The relative viability (NCI-H460; first compound 0.253 µM) was 0.0395, the relative viability (NCI-H460; first compound 0.8 µM) was 0.0405 and the relative viability (NCI-H460; first compound 2.53 µM) was 0.0235. The relative viability (NCI-H520; first compound 0.08 µM) was 0.233, the relative viability (NCI-H520; first compound 0.253 µM) was 0.243 and the relative viability (NCI-H520; first compound 0.8 µM) was 0.201. For the same molecule, the relative viability (NCI-H520; first compound 2.53 µM) was 0.204, the relative viability (NCI-H596; first compound 0.08 µM) was 1.06 and the relative viability (NCI-H596; first compound 0.253 µM) was 0.881. For the same molecule, the relative viability (NCI-H596; first compound 0.8 µM) was 1.13, the relative viability (NCI-H596; first compound 2.53 µM) was 0.873 and the relative viability (NCI-H650; first compound 0.08 µM) was 0.858. It also gave a relative viability (NCI-H650; first compound 0.253 µM) of 0.75, a relative viability (NCI-H650; first compound 0.8 µM) of 0.93 and a relative viability (NCI-H650; first compound 2.53 µM) of 0.745. For the same molecule, the relative viability (NCI-H661; first compound 0.08 µM) was 0.894, the relative viability (NCI-H661; first compound 0.253 µM) was 0.892 and the relative viability (NCI-H661; first compound 0.8 µM) was 0.913. The relative viability (NCI-H661; first compound 2.53 µM) was 0.933, the relative viability (NCI-H727; first compound 0.08 µM) was 0.31 and the relative viability (NCI-H727; first compound 0.253 µM) was 0.345. For the same molecule, the relative viability (NCI-H727; first compound 0.8 µM) was 0.472, the relative viability (NCI-H727; first compound 2.53 µM) was 0.342 and the relative viability (PC-14; first compound 0.08 µM) was 0.163. The relative viability (PC-14; first compound 0.253 µM) was 0.174, the relative viability (PC-14; first compound 0.8 µM) was 0.164 and the relative viability (PC-14; first compound 2.53 µM) was 0.179. It also gave a relative viability (RERF-LC-KJ; first compound 0.08 µM) of 1.21, a relative viability (RERF-LC-KJ; first compound 0.253 µM) of 1.06 and a relative viability (RERF-LC-KJ; first compound 0.8 µM) of 1.07. It also gave a relative viability (RERF-LC-KJ; first compound 2.53 µM) of 0.844, a relative viability (SK-MES-1; first compound 0.08 µM) of 0.915 and a relative viability (SK-MES-1; first compound 0.253 µM) of 0.726. For the same molecule, the relative viability (SK-MES-1; first compound 0.8 µM) was 0.654, the relative viability (SK-MES-1; first compound 2.53 µM) was 0.48 and the relative viability (SW 900; first compound 0.08 µM) was 0.171. It also gave a relative viability (SW 900; first compound 0.253 µM) of 0.18, a relative viability (SW 900; first compound 0.8 µM) of 0.183 and a relative viability (SW 900; first compound 2.53 µM) of 0.151.
